In patent US12123010B2, “Plants having increased tolerance to herbicides” (BASF SE, priority 2017, dated 2024):

How the values were obtained:
[1] = test system: Transgenic T2 Arabidopsis plants and ARBTH WT MC24 non-transgenic; experiment: Greenhouse post spray test, injury 14 DAT (Tables ii, iii); format: in vivo, Arabidopsis thaliana; details: Arabidopsis thaliana, 336 h, Table ii; for pest or weed control at 50 g/ha: 50 g ai/ha; for pest or weed control at 100 g/ha: 100 g ai/ha; for pest or weed control at 200 g/ha: 200 g ai/ha;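 for all read-outs here: value is percent injury to the sprayed plants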
[2] = test system: Variant PPO Enzyme R128A, F420M (Amaranthus PPO2); format: biochemical; details: variant R128A, F420M vs wild type
[3] = molecular target: Wild Type PPO Enzyme (Amaranthus PPO2, SEQ ID NO: 1) (Amaranthus tuberculatus, UniProt Q0NZW9); experiment: PPO enzyme assay (recombinant), wild type; format: biochemical
Sequence of Wild Type PPO Enzyme (Amaranthus PPO2, SEQ ID NO: 1) (Q0NZW9 1-534): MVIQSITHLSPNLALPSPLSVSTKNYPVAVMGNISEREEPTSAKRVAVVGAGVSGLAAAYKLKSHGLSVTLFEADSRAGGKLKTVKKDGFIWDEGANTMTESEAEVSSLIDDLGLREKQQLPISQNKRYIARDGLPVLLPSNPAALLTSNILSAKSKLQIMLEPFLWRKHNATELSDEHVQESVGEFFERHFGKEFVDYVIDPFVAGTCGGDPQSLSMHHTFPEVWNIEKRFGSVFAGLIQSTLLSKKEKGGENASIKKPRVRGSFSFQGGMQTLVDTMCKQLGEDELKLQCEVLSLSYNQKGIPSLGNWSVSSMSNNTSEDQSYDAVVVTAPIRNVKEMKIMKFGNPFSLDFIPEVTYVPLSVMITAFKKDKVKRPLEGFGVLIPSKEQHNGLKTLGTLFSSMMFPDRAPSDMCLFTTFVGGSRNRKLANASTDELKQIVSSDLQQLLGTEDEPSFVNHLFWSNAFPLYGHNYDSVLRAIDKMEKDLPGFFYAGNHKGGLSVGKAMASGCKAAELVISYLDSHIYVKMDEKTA

CCOC(=O)COc1ccccc1Oc1nc(-n2c(=O)cc(C(F)(F)F)n(C)c2=O)ccc1Br [Uracilpyridine 6, ethyl 2-[2-[[3-bromo-6-[3-methyl-2,6-dioxo-4-(trifluoromethyl)pyrimidin-1-yl]-2-pyridyl]oxy]phenoxy]acetate]
pest or weed control at 50 g/ha ([1]; ALOMY_PPO2_R137L_F438V event F): 0% | pest or weed control at 100 g/ha ([1]; ALOMY_PPO2_R137L_F438V event F): 0% | pest or weed control at 200 g/ha ([1]; ALOMY_PPO2_R137L_F438V event F): 18% | pest or weed control at 50 g/ha ([1]; ALOMY_PPO2_R137L_F438V event G): 0% | pest or weed control at 100 g/ha ([1]; ALOMY_PPO2_R137L_F438V event G): 0% | pest or weed control at 200 g/ha ([1]; ALOMY_PPO2_R137L_F438V event G): 0% | pest or weed control at 50 g/ha ([1]; AMATU_PPO2_L397E_F420V event D): 0% | pest or weed control at 100 g/ha ([1]; AMATU_PPO2_L397E_F420V event D): 0% | pest or weed control at 200 g/ha ([1]; AMATU_PPO2_L397E_F420V event D): 8% | pest or weed control at 50 g/ha ([1]; AMATU_PPO2_L397E_F420V event L): 0% | pest or weed control at 100 g/ha ([1]; AMATU_PPO2_L397E_F420V event L): 0% | pest or weed control at 200 g/ha ([1]; AMATU_PPO2_L397E_F420V event L): 15% | pest or weed control at 50 g/ha ([1]; AMATU_PPO2_R128A_F420V event A): 0% | pest or weed control at 100 g/ha ([1]; AMATU_PPO2_R128A_F420V event A): 43% | pest or weed control at 200 g/ha ([1]; AMATU_PPO2_R128A_F420V event A): 30% | pest or weed control at 50 g/ha ([1]; AMATU_PPO2_R128A_F420V event D): 0% | pest or weed control at 100 g/ha ([1]; AMATU_PPO2_R128A_F420V event D): 38% | pest or weed control at 200 g/ha ([1]; AMATU_PPO2_R128A_F420V event D): 28%

CCOC(=O)COc1ccc(F)cc1Oc1nc(-n2c(=O)cc(C(F)(F)F)n(C)c2=O)c(F)cc1Cl [Uracilpyridine 7, ethyl 2-[2-[[3-chloro-5-fluoro-6-[3-methyl-2,6-dioxo-4-(trifluoromethyl)pyrimidin-1-yl]-2-pyridyl]oxy]-4-fluoro-phenoxy]acetate]
pest or weed control at 50 g/ha ([1]; ALOMY_PPO2_R137L_F438V event F): 0% | pest or weed control at 100 g/ha ([1]; ALOMY_PPO2_R137L_F438V event F): 18% | pest or weed control at 200 g/ha ([1]; ALOMY_PPO2_R137L_F438V event F): 13% | pest or weed control at 50 g/ha ([1]; ALOMY_PPO2_R137L_F438V event G): 0% | pest or weed control at 100 g/ha ([1]; ALOMY_PPO2_R137L_F438V event G): 0% | pest or weed control at 200 g/ha ([1]; ALOMY_PPO2_R137L_F438V event G): 8% | pest or weed control at 50 g/ha ([1]; AMATU_PPO2_L397E_F420V event D): 0% | pest or weed control at 100 g/ha ([1]; AMATU_PPO2_L397E_F420V event D): 0% | pest or weed control at 200 g/ha ([1]; AMATU_PPO2_L397E_F420V event D): 10% | pest or weed control at 50 g/ha ([1]; AMATU_PPO2_L397E_F420V event L): 0% | pest or weed control at 100 g/ha ([1]; AMATU_PPO2_L397E_F420V event L): 0% | pest or weed control at 200 g/ha ([1]; AMATU_PPO2_L397E_F420V event L): 33% | pest or weed control at 50 g/ha ([1]; AMATU_PPO2_R128A_F420V event A): 13% | pest or weed control at 100 g/ha ([1]; AMATU_PPO2_R128A_F420V event A): 50% | pest or weed control at 200 g/ha ([1]; AMATU_PPO2_R128A_F420V event A): 70% | pest or weed control at 50 g/ha ([1]; AMATU_PPO2_R128A_F420V event D): 33% | pest or weed control at 100 g/ha ([1]; AMATU_PPO2_R128A_F420V event D): 65% | pest or weed control at 200 g/ha ([1]; AMATU_PPO2_R128A_F420V event D): 75%

CCOC(=O)COc1ccccc1Oc1nc(-n2c(=O)c(C)c(C(F)(F)F)n(C)c2=O)c(F)cc1Cl [Uracilpyridine 12, ethyl 2-[2-[[3-chloro-6-[3,5-dimethyl-2,6-dioxo-4-(trifluoromethyl)pyrimidin-1-yl]-5-fluoro-2-pyridyl]oxy]phenoxy]acetate]
Tolerance Factor (R/S) [2]: 536 | IC50 [3]: 0.212 nM

C=CCOC(=O)COc1ncccc1Oc1nc(-n2c(=O)cc(C(F)(F)F)n(C)c2=O)c(F)cc1Cl [Uracilpyridine 13, allyl 2-[[3-[[3-chloro-5-fluoro-6-[3-methyl-2,6-dioxo-4-(trifluoromethyl)pyrimidin-1-yl]-2-pyridyl]oxy]-2-pyridyl]oxy]acetate]
Tolerance Factor (R/S) [2]: 421 | IC50 [3]: 0.218 nM

C#CCOC(=O)COc1ncccc1Oc1nc(-n2c(=O)cc(C(F)(F)F)n(C)c2=O)c(F)cc1Cl [Uracilpyridine 14, prop-2-ynyl 2-[[3-[[3-chloro-5-fluoro-6-[3-methyl-2,6-dioxo-4-(trifluoromethyl)pyrimidin-1-yl]-2-pyridyl]oxy]-2-pyridyl]oxy]acetate]
Tolerance Factor (R/S) [2]: 675 | IC50 [3]: 0.234 nM

Cn1c(C(F)(F)F)cc(=O)n(-c2nc(Oc3cccnc3OCC(=O)OCC3CC3)c(Cl)cc2F)c1=O [Uracilpyridine 15, cyclopropylmethyl 2-[[3-[[3-chloro-5-fluoro-6-[3-methyl-2,6-dioxo-4-(trifluoromethyl)pyrimidin-1-yl]-2-pyridyl]oxy]-2-pyridyl]oxy]acetate]
Tolerance Factor (R/S) [2]: 195 | IC50 [3]: 0.22 nM

Cn1c(C(F)(F)F)cc(=O)n(-c2nc(Oc3cccnc3OCC(=O)OCC(F)F)c(Cl)cc2F)c1=O [Uracilpyridine 16, 2,2-difluoroethyl 2-[[3-[[3-chloro-5-fluoro-6-[3-methyl-2,6-dioxo-4-(trifluoromethyl)pyrimidin-1-yl]-2-pyridyl]oxy]-2-pyridyl]oxy]acetate]
Tolerance Factor (R/S) [2]: 508 | IC50 [3]: 0.175 nM

CC(C)COC(=O)COc1ncccc1Oc1nc(-n2c(=O)cc(C(F)(F)F)n(C)c2=O)c(F)cc1Cl [Uracilpyridine 17, isobutyl 2-[[3-[[3-chloro-5-fluoro-6-[3-methyl-2,6-dioxo-4-(trifluoromethyl)pyrimidin-1-yl]-2-pyridyl]oxy]-2-pyridyl]oxy]acetate]
Tolerance Factor (R/S) [2]: 406 | IC50 [3]: 0.113 nM

CCOC(=O)COC(=O)COc1ncccc1Oc1nc(-n2c(=O)cc(C(F)(F)F)n(C)c2=O)c(F)cc1Cl [Uracilpyridine 18, (2-ethoxy-2-oxo-ethyl) 2-[[3-[[3-chloro-5-fluoro-6-[3-methyl-2,6-dioxo-4-(trifluoromethyl)pyrimidin-1-yl]-2-pyridyl]oxy]-2-pyridyl]oxy]acetate]
Tolerance Factor (R/S) [2]: 753 | IC50 [3]: 0.154 nM

COCCOC(=O)COc1ncccc1Oc1nc(-n2c(=O)cc(C(F)(F)F)n(C)c2=O)c(F)cc1Cl [Uracilpyridine 19, 2-methoxyethyl 2-[[3-[[3-chloro-5-fluoro-6-[3-methyl-2,6-dioxo-4-(trifluoromethyl)pyrimidin-1-yl]-2-pyridyl]oxy]-2-pyridyl]oxy]acetate]
Tolerance Factor (R/S) [2]: 503 | IC50 [3]: 0.248 nM
